{"source": "paper PMC7982615", "about": "“Phase 1 study of telisotuzumab vedotin in Japanese patients with advanced solid tumors” (Cancer Medicine, 2021)", "key": {"[1]": {"assay": "Pharmacokinetics of teliso‐v conjugate and MMAE, noncompartmental", "format": "in vivo, human", "conditions": "for AUCinf, conjugate / Cmax, conjugate: geometric mean (%CV); for t1/2, conjugate: harmonic mean (min-max); for Tmax, conjugate: median (min-max)", "description": "PK samples were also collected on cycles 2 and 4 predose and approximately 30 minutes after the end of infusion on day 1. PK parameters such as peak concentration (Cmax), time to peak concentration, area under the concentration‐time curve (AUC), and terminal half‐life (t1/2) were determined using noncompartmental methods."}, "advanced solid tumors": {"tested_on": "advanced solid tumors", "assay": "Preliminary antitumor activity, RECIST version 1.1", "format": "in vivo, human", "conditions": "for PFS estimate at 6 months / Median PFS / Median duration of overall response / PFS estimate at 9 months: [95% CI]; for Median PFS: Kaplan–Meier", "excerpt": "Evaluation of tumor response to determine the objective response rate (ORR), progression‐free survival (PFS), and duration of response was based on RECIST version 1.1 criteria.\nAll data were summarized and tabulated by dose cohort. Categoric data were summarized in terms of frequency counts and percentages. Continuous data were summarized using descriptive statistics, including number of observations, mean, standard deviation, median, minimum, and maximum. No formal statistical analysis was performed for efficacy variables, which were all exploratory in nature. ORR was defined as the proportion of patients with a confirmed partial response (PR) or complete response (CR). Duration of response was defined as time from a patient's initial objective response to the first date of disease progression (PD) or death. The overall disease control rate was defined as the proportion of patients with CR, PR, or stable disease (SD). […] PFS was estimated using the Kaplan–Meier method. Efficacy analyses are presented with two‐sided exact 95% binomial CI."}, "[2]": {"conditions": "first administration, cycle 1, across 2.4 and 2.7 mg/kg"}, "[3]": {"conditions": "total, N = 9, listed as telisotuzumab vedotin"}, "[4]": {"conditions": "total, N = 9, listed as teliso-v"}}}
{"substance": "Teliso‐v: antibody‐drug conjugate: anti–c‐Met humanized monoclonal antibody ABT‐700 coupled to monomethyl auristatin E through a valine‐citrulline linker, drug:antibody ratio approximately three", "values": [{"measurement": "Dose proportionality of systemic exposure", "setting": "[1]; 2.4 and 2.7 mg/kg, cycle 1", "value": "approximately dose proportional"}, {"measurement": "t1/2", "setting": "[1]; N = 9, both dose levels", "value": "72 to 96", "unit": "h"}, {"measurement": "AUCinf, conjugate", "setting": "[1]; cycle 1, 2.4 mg/kg IV, n = 3", "value": "4437 (19) µg*h/mL"}, {"measurement": "Cmax, conjugate", "setting": "[1]; cycle 1, 2.4 mg/kg IV, n = 3", "value": "55.5 (26) µg/mL"}, {"measurement": "t1/2, conjugate", "setting": "[1]; cycle 1, 2.4 mg/kg IV, n = 3", "value": "4.18 (3.8–4.7) days"}, {"measurement": "Tmax, conjugate", "setting": "[1]; cycle 1, 2.4 mg/kg IV, n = 3", "value": "1 (1–1) h"}, {"measurement": "AUCinf, conjugate", "setting": "[1]; cycle 1, 2.7 mg/kg IV, n = 6", "value": "5202 (23) µg*h/mL"}, {"measurement": "Cmax, conjugate", "setting": "[1]; cycle 1, 2.7 mg/kg IV, n = 6", "value": "63.0 (22) µg/mL"}, {"measurement": "t1/2, conjugate", "setting": "[1]; cycle 1, 2.7 mg/kg IV, n = 6", "value": "2.91 (2.5–3.9) days"}, {"measurement": "Tmax, conjugate", "setting": "[1]; cycle 1, 2.7 mg/kg IV, n = 6", "value": "1 (1–1) h"}, {"measurement": "AUC from zero to infinity, preliminary geometric mean", "setting": "[1]; [2]", "value": "4,400–5,200 µg*h/ml"}, {"measurement": "Serum Cmax, preliminary geometric mean", "setting": "[1]; [2]", "value": "55.5 to 63.0", "unit": "µg/mL"}, {"measurement": "Accumulation in cycle 3", "setting": "[1]; multiple dosing Q3 W", "value": "1.1–1.2 fold"}, {"measurement": "Complete response", "setting": "advanced solid tumors; 2.4 mg/kg Q3W, n = 3", "value": "0 n (%)"}, {"measurement": "Disease control rate", "setting": "advanced solid tumors; 2.4 mg/kg Q3W, n = 3", "value": "3 (100) [NA] n (%) [95% CI]"}, {"measurement": "Objective response rate", "setting": "advanced solid tumors; 2.4 mg/kg Q3W, n = 3", "value": "0 n (%)"}, {"measurement": "Partial response", "setting": "advanced solid tumors; 2.4 mg/kg Q3W, n = 3", "value": "0 n (%)"}, {"measurement": "Progressive disease", "setting": "advanced solid tumors; 2.4 mg/kg Q3W, n = 3", "value": "0 n (%)"}, {"measurement": "Stable disease", "setting": "advanced solid tumors; 2.4 mg/kg Q3W, n = 3", "value": "3 (100) n (%)"}, {"measurement": "PFS estimate at 6 months", "setting": "advanced solid tumors; 2.4 mg/kg Q3W, n = 3", "value": "33.3 [0.9–77.4] %"}, {"measurement": "Median PFS", "setting": "advanced solid tumors; 2.4 mg/kg Q3W, n = 3", "value": "4.1 [2.8–7.1] months"}, {"measurement": "Complete response", "setting": "advanced solid tumors; 2.7 mg/kg Q3W, n = 6", "value": "0 n (%)"}, {"measurement": "Objective response rate", "setting": "advanced solid tumors; 2.7 mg/kg Q3W, n = 6", "value": "2 (33) n (%)"}, {"measurement": "Partial response", "setting": "advanced solid tumors; 2.7 mg/kg Q3W, n = 6", "value": "2 (33) n (%)"}, {"measurement": "Progressive disease", "setting": "advanced solid tumors; 2.7 mg/kg Q3W, n = 6", "value": "1 (17) n (%)"}, {"measurement": "Stable disease", "setting": "advanced solid tumors; 2.7 mg/kg Q3W, n = 6", "value": "3 (50) n (%)"}, {"measurement": "Median duration of overall response", "setting": "advanced solid tumors; 2.7 mg/kg Q3W, n = 6", "value": "8.2 [7.2–9.1] months"}, {"measurement": "PFS estimate at 6 months", "setting": "advanced solid tumors; 2.7 mg/kg Q3W, n = 6", "value": "83.3 [27.3–97.5] %"}, {"measurement": "PFS estimate at 9 months", "setting": "advanced solid tumors; 2.7 mg/kg Q3W, n = 6", "value": "83.3 [27.3–97.5] %"}, {"measurement": "Median PFS", "setting": "advanced solid tumors; 2.7 mg/kg Q3W, n = 6", "value": "10.4 [1.2–12.0] months"}, {"measurement": "Patients with PD", "setting": "advanced solid tumors; N = 9", "value": "one"}, {"measurement": "Patients with SD", "setting": "advanced solid tumors; N = 9", "value": "six"}, {"measurement": "Patients with PR", "setting": "advanced solid tumors; N = 9, both at 2.7‐mg/kg (urothelial, ovarian cancer)", "value": "Two"}, {"measurement": "Reduction of sum of the tumor size", "setting": "advanced solid tumors; single patient, 27 weeks after teliso-v initiation", "value": 73, "unit": "%"}, {"measurement": "Sum of the tumor size", "setting": "advanced solid tumors; single patient, lung metastasis, 27 weeks after teliso-v initiation, baseline 64.4 mm", "value": 17.3, "unit": "mm"}, {"measurement": "Patients with reduction in tumor size from baseline", "setting": "advanced solid tumors; thymic cancer, NSCLC, ovarian cancer, urothelial cancer", "value": "Four"}, {"measurement": "Complete response", "setting": "advanced solid tumors; total, N = 9", "value": "0 n (%)"}, {"measurement": "Objective response rate", "setting": "advanced solid tumors; total, N = 9", "value": "2 (22) n (%)"}, {"measurement": "Overall disease control rate", "setting": "advanced solid tumors; total, N = 9", "value": 89, "unit": "%"}, {"measurement": "PFS estimate at 6 months", "setting": "advanced solid tumors; total, N = 9", "value": "64.0 [23.8–86.6] %"}, {"measurement": "PFS estimate at 9 months", "setting": "advanced solid tumors; total, N = 9", "value": "48.0 [12.3–76.9] %"}, {"measurement": "Median PFS", "setting": "advanced solid tumors; total, N = 9", "value": "7.1 [1.2–10.4] months"}, {"measurement": "Median PFS", "setting": "advanced solid tumors; [3]", "value": 7.1, "unit": "months"}, {"measurement": "Median duration of overall response", "setting": "advanced solid tumors; [4]", "value": "8.2 [7.2–9.1] months"}, {"measurement": "Median duration of overall response", "setting": "advanced solid tumors; total, N = 9, listed as teliso‐v", "value": 8.2, "unit": "months"}, {"measurement": "Partial response", "setting": "advanced solid tumors; [4]", "value": "2 (22) n (%)"}, {"measurement": "Progressive disease", "setting": "advanced solid tumors; [4]", "value": "1 (11) n (%)"}, {"measurement": "Stable disease", "setting": "advanced solid tumors; [4]", "value": "6 (67) n (%)"}, {"measurement": "Partial response", "setting": "advanced solid tumors; [3]", "value": 22, "unit": "%"}, {"measurement": "Progressive disease", "setting": "advanced solid tumors; [3]", "value": 11, "unit": "%"}, {"measurement": "Stable disease", "setting": "advanced solid tumors; [3]", "value": 67, "unit": "%"}]}
